The source made the active and inactive calls. No cut-off for these calls is given here.
Key:
[1] = Toxicity in female BALB/c mouse bearing mouse 4T1 cells assessed as damage in heart at 2.5 mg/kg, iv pretreated for 4 hrs followed by exposure to laser irradiation of 808 nm for 5 mins on every 2 days treated for 15 days by H and E staining based analysis; format: organism-based; conditions: in vivo, 360 h, time 15 day
[2] = test system: Mus musculus; assay: Photothermal effect in female BALB/c mouse bearing mouse 4T1 cells at approximately 50 degreeC at 2.5 mg/kg, iv pretreated for 4 hrs followed by exposure to laser irradiation of 808 nm for 5 mins; format: functional, organism-based; conditions: time 245.0 min
[3] = test system: 4T1; assay: Cytotoxicity against mouse 4T1 cells assessed as cell viability under dark condition up to 25 uM incubated for 24 hrs by MTT assay relative to control; format: functional
[4] = test system: 4T1; assay: Antitumor activity against mouse 4T1 cells implanted in female BALB/c mouse assessed as tumor growth inhibition at 2.5 mg/kg, iv pretreated for 4 hrs followed by exposure to laser irradiation of 808 nm for 5 mins on every 2 days treated for 15 days; format: functional, organism-based; conditions: time 15.0 day
[5] = Toxicity in ICR mouse bearing mouse H22 cells assessed as damage in kidney at 2.5 mg/kg, iv pretreated for 4 hrs followed by exposure to laser irradiation of 808 nm for 5 mins on every 2 days treated for 15 days by H and E staining based analysis; format: organism-based; conditions: in vivo, 360 h, time 15 day
[6] = Biodistribution in liver of female BALB/c mouse bearing mouse 4T1 cells at 2.5 mg/kg, iv measured up to 12 hrs by fluorescence imaging analysis; format: ADME, organism-based; conditions: in vivo
[7] = Toxicity in female BALB/c mouse bearing mouse 4T1 cells assessed as damage in spleen at 2.5 mg/kg, iv pretreated for 4 hrs followed by exposure to laser irradiation of 808 nm for 5 mins on every 2 days treated for 15 days by H and E staining based analysis; format: organism-based; conditions: in vivo, 360 h, time 15 day
[8] = Toxicity in female BALB/c mouse bearing mouse 4T1 cells assessed as body weight at 2.5 mg/kg, iv pretreated for 4 hrs followed by exposure to laser irradiation of 808 nm for 5 mins on every 2 days treated for 15 days; format: organism-based; conditions: in vivo, 360 h, time 15 day
[9] = Aqueous solubility of compound by absorbance based assay; format: physicochemical; conditions: buffer
[10] = test system: Mus musculus; assay: Photothermal effect in female BALB/c mouse bearing mouse 4T1 cells at 42 degreeC at 1.8 mg/kg, iv pretreated for 4 hrs followed by exposure to laser irradiation of 808 nm for 5 mins; format: functional, organism-based; conditions: time 245.0 min
[11] = Toxicity in female BALB/c mouse bearing mouse 4T1 cells assessed as damage in heart at 1.8 mg/kg, iv pretreated for 4 hrs followed by exposure to laser irradiation of 808 nm for 5 mins on every 2 days treated for 15 days by H and E staining based analysis; format: organism-based; conditions: in vivo, 360 h, time 15 day
[12] = test system: HepG2; assay: Photothermal cytotoxicity against human HepG2 cells up to 25 uM preincubated for 4 hrs followed by exposure to laser irradiation of 808 nm for 2 mins and subsequent incubation for 20 hrs by MTT assay; format: functional, cell-based; conditions: time 1442.0 min
[13] = Toxicity in ICR mouse bearing mouse H22 cells assessed as damage in heart at 1.8 mg/kg, iv pretreated for 4 hrs followed by exposure to laser irradiation of 808 nm for 5 mins on every 2 days treated for 15 days by H and E staining based analysis; format: organism-based; conditions: in vivo, 360 h, time 15 day
[14] = Biodistribution in liver of female BALB/c mouse bearing mouse 4T1 cells at 1.8 mg/kg, iv measured up to 12 hrs by fluorescence imaging analysis; format: ADME, organism-based; conditions: in vivo
[15] = Toxicity in ICR mouse bearing mouse H22 cells assessed as damage in liver at 1.8 mg/kg, iv pretreated for 4 hrs followed by exposure to laser irradiation of 808 nm for 5 mins on every 2 days treated for 15 days by H and E staining based analysis; format: organism-based; conditions: in vivo, 360 h, time 15 day
[16] = Toxicity in female BALB/c mouse bearing mouse 4T1 cells assessed as damage in liver at 1.8 mg/kg, iv pretreated for 4 hrs followed by exposure to laser irradiation of 808 nm for 5 mins on every 2 days treated for 15 days by H and E staining based analysis; format: organism-based; conditions: in vivo, 360 h, time 15 day

Compound	Activity [1]	Activity [2]	Activity [3] [%]	inhibition [4]	Activity [5]	Drug uptake [6]	Activity [7]	Activity [8] [g]	solubility [9]	Activity [10]	Activity [11]	Activity [12]	Activity [13]	Drug uptake [14]	Activity [15]	Activity [16]
COCCOCCOCCN1/C(=C/C=C/C(=C/C=C/C2=[N+](CCOCCOCCOC)c3ccccc3C2(C)C)C(=O)OC)C(C)(C)c2ccccc21.[I-]	Non-toxic	Active; Compound Exhibited Superior Effect Among Tested Compounds	55	Active	Non-toxic	Active	Non-toxic	18	soluble							
COC(=O)C(=C\C=C\C1=[N+](C)c2ccccc2C1(C)C)/C=C/C=C1/N(C)c2ccccc2C1(C)C.[I-]										Active	Non-toxic	Not active; Limited Photo-Thermal Toxicity Was Observed	Non-toxic	Active	Non-toxic	Non-toxic

— ChEMBL document CHEMBL6182861, “Structural modification of heptamethine indocyanine dyes with improved aqueous solubility and stability for photothermal therapy” (Eur J Med Chem, 2025)
